From PubChem BioAssay AID406 (SGCOxCompounds, 2006)

Target: mRNA-capping enzyme (Homo sapiens) (UniProt O60942)
Test: RNGTT phosphatase activity inhibitors, biochemical, DiFMUP fluorescence, recombinant (AID 406)
Details: at 50 µM, stronger effect = higher value

mRNA-capping enzyme (Homo sapiens), sequence (O60942 whole entry, looked up): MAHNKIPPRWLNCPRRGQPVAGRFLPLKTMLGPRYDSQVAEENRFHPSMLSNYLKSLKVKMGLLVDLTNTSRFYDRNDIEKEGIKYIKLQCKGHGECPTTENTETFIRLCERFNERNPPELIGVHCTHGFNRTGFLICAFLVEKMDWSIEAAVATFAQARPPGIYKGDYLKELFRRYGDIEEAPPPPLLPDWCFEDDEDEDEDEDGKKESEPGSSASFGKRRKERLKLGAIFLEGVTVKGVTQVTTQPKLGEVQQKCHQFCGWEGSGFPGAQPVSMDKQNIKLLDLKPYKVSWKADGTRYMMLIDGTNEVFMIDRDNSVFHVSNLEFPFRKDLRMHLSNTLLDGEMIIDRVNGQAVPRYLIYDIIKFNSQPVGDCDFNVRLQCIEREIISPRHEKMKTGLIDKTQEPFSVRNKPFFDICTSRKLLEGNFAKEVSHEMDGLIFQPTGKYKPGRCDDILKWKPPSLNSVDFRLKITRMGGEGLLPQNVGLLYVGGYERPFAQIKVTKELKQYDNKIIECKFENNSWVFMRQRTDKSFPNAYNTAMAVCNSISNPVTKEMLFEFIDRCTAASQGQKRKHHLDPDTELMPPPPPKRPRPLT

SMILES | inhibition
O=C(O)c1ccc(O)cn1.OO.[O]=[V] | 51%
c1ccc([C@H]2CN3CCSC3=N2)cc1 | 29%
O=C([O-])c1ccccn1.OO.OO.[K+].[K+].[O]=[V] | 36%
NC1=NC(=O)/C(=C/C=C/c2ccc([N+](=O)[O-])o2)S1 | 33%
CC(C)(c1ccc(NS(=O)(=O)C(F)(F)F)cc1)c1ccc(C(C)(C)c2ccc(NS(=O)(=O)C(F)(F)F)cc2)cc1 | 37%
O=C1NC(=S)S/C1=C\C=C\c1ccc([N+](=O)[O-])o1 | 60%
OO.OO.[K+].[O]=[V].c1ccc(-c2ccccn2)nc1 | 41%
CN(N=O)c1ccc(O)c(O)c1 | 33%
OO.OO.[K+].[O]=[V].c1cnc2c(c1)ccc1cccnc12 | 22%
O=C(O)c1ccc([O-])cn1.OO.OO.[K+].[K+].[O]=[V] | 47%
O=C1NC(=S)NC(=O)C1=C/C=C/c1ccco1 | 22%
CC(=O)c1ccc2c(c1)C1C=CCC1C(C(=O)O)N2 (configuration not stated) | 41%
